“And” between values parts separate entries of the source, which are not always exact repeats. Identical values can stand only once. “Also recorded” adds a separate entry of the source.
How the values were obtained:
C. elegans = C. elegans motor phenotype scoring on solid media (Punc/jerky-unc, coiled, paralyzed), wild-type young adults; format: in vivo, Caenorhabditis elegans; conditions: for any phene, mean % fraction of young adults exhibiting any phenotype (coiled, jerky-Unc or paralyzed) / atypical locomotion (number of animals) / coiled (number of animals) / no phene (number of animals) / paralyzed (number of animals): one hour; for any phene, mean % fraction of young adults exhibiting any phenotype (coiled, jerky-Unc or paralyzed): mean of three biological replicates; for atypical locomotion (number of animals) / coiled (number of animals) / no phene (number of animals) / paralyzed (number of animals): young adults, 20 animals per trial, single replicate counts; for C1 (number of animals scored) / C2 (number of animals scored) / Fraction Coiled, AVERAGES / Fraction Paralyzed, AVERAGES / Fraction Punc, AVERAGES / NP (number of animals scored) / P (number of animals scored) / Fraction Coiled / Fraction Paralyzed / Punc (number of animals scored) / Fraction Punc / Next Day: Animals alive (moving fine): adults; for Fraction Coiled / Fraction Paralyzed / Fraction Punc: single experiment
[1] = system: Dirofilaria immitis L3/L4; experiment: Dirofilaria immitis L3/L4 motility assay (DiroImager, 72 h); conditions: Dirofilaria immitis L4

## O=[N+]([O-])c1ccc(N2CCN(CC3CC4C=CC3C4)CC2)cc1 (stereo not drawn) [Nemacol-3]
C. elegans; 3.75uM
  any phene, mean % fraction of young adults exhibiting any phenotype (coiled, jerky-Unc or paralyzed): 19.1667%
  atypical locomotion (number of animals): 0 and 13 and 10
  coiled (number of animals): 0
  no phene (number of animals): 20 and 7 and 10
  paralyzed (number of animals): 0
C. elegans; 15 μM, 30 min
  C1 (number of animals scored): 0
  C2 (number of animals scored): 0
  Fraction Coiled, AVERAGES: 0.0
  Fraction Paralyzed, AVERAGES: 0.0
  Fraction Punc, AVERAGES: 0.111
  NP (number of animals scored): 17 and 14
  P (number of animals scored): 0
  Fraction Coiled: 0.0
  Fraction Paralyzed: 0.0
C. elegans; 15 μM, 60 min
  C1 (number of animals scored): 0
  C2 (number of animals scored): 0
  Fraction Coiled, AVERAGES: 0.0
  Fraction Paralyzed, AVERAGES: 0.0
  Fraction Punc, AVERAGES: 0.4
  P (number of animals scored): 0
  Fraction Coiled: 0.0
  Fraction Paralyzed: 0.0
C. elegans; 15 μM, 90 min
  C1 (number of animals scored): 0
  C2 (number of animals scored): 0
  Fraction Coiled, AVERAGES: 0.0
  Fraction Paralyzed, AVERAGES: 0.0
  Fraction Punc, AVERAGES: 0.167
  NP (number of animals scored): 16 and 14 and 15
  P (number of animals scored): 0
  Punc (number of animals scored): 2 and 4 and 3
  Fraction Coiled: 0.0
  Fraction Paralyzed: 0.0
  Fraction Punc: 0.111 and 0.222 and 0.167
C. elegans; 15 μM, 120 min
  C1 (number of animals scored): 0
  C2 (number of animals scored): 0
  Fraction Coiled, AVERAGES: 0.0
  Fraction Paralyzed, AVERAGES: 0.0
  Fraction Punc, AVERAGES: 0.0185
  NP (number of animals scored): 18 and 17
  P (number of animals scored): 0
  Fraction Coiled: 0.0
  Fraction Paralyzed: 0.0
C. elegans; 15 μM, 240 min
  C1 (number of animals scored): 0
  C2 (number of animals scored): 0
  Fraction Coiled, AVERAGES: 0.0
  Fraction Paralyzed, AVERAGES: 0.0
  Fraction Punc, AVERAGES: 0.0
  NP (number of animals scored): 18
  P (number of animals scored): 0
  Punc (number of animals scored): 0
  Fraction Coiled: 0.0
  Fraction Paralyzed: 0.0
  Fraction Punc: 0.0
C. elegans; 15 μM, 360 min
  C1 (number of animals scored): 0
  C2 (number of animals scored): 0
  Fraction Coiled, AVERAGES: 0.0
  Fraction Paralyzed, AVERAGES: 0.0
  Fraction Punc, AVERAGES: 0.0
  NP (number of animals scored): 18
  P (number of animals scored): 0
  Punc (number of animals scored): 0
  Fraction Coiled: 0.0
  Fraction Paralyzed: 0.0
  Fraction Punc: 0.0
C. elegans; 15 μM
  Next Day: Animals alive (moving fine): alive, recovered; also recorded: alive recovered
C. elegans; 15uM
  any phene, mean % fraction of young adults exhibiting any phenotype (coiled, jerky-Unc or paralyzed): 65.4545%
  atypical locomotion (number of animals): 12 and 14 and 4 and 3 and 7
  coiled (number of animals): 2 and 1 and 5
  no phene (number of animals): 6 and 5 and 15 and 16 and 0
  paralyzed (number of animals): 2 and 0 and 8 and 11
C. elegans; 30 μM, 30 min
  C1 (number of animals scored): 0
  C2 (number of animals scored): 0
  Fraction Coiled, AVERAGES: 0.0
  Fraction Paralyzed, AVERAGES: 0.0
  Fraction Punc, AVERAGES: 0.333
  NP (number of animals scored): 14 and 11
  P (number of animals scored): 0
  Punc (number of animals scored): 4 and 7
  Fraction Coiled: 0.0
  Fraction Paralyzed: 0.0
  Fraction Punc: 0.222 and 0.4
C. elegans; 30 μM, 60 min
  C1 (number of animals scored): 0
  C2 (number of animals scored): 0
  Fraction Coiled, AVERAGES: 0.0
  Fraction Paralyzed, AVERAGES: 0.0
  Fraction Punc, AVERAGES: 0.6
  P (number of animals scored): 0
  Punc (number of animals scored): 8 and 15
  Fraction Coiled: 0.0
  Fraction Paralyzed: 0.0
  Fraction Punc: 0.444 and 0.8
C. elegans; 30 μM, 90 min
  C1 (number of animals scored): 0
  C2 (number of animals scored): 0
  Fraction Coiled, AVERAGES: 0.0
  Fraction Paralyzed, AVERAGES: 0.0
  Fraction Punc, AVERAGES: 0.3
  NP (number of animals scored): 13 and 9 and 16
  P (number of animals scored): 0
  Fraction Coiled: 0.0
  Fraction Paralyzed: 0.0
C. elegans; 30 μM, 120 min
  C1 (number of animals scored): 0
  C2 (number of animals scored): 0
  Fraction Coiled, AVERAGES: 0.0
  Fraction Paralyzed, AVERAGES: 0.0
  Fraction Punc, AVERAGES: 0.0741
  NP (number of animals scored): 17 and 16
  P (number of animals scored): 0
  Punc (number of animals scored): 1 and 2
  Fraction Coiled: 0.0
  Fraction Paralyzed: 0.0
  Fraction Punc: 0.0556 and 0.111
C. elegans; 30 μM, 240 min
  C1 (number of animals scored): 0
  C2 (number of animals scored): 0
  Fraction Coiled, AVERAGES: 0.0
  Fraction Paralyzed, AVERAGES: 0.0
  Fraction Punc, AVERAGES: 0.0
  NP (number of animals scored): 18
  P (number of animals scored): 0
  Punc (number of animals scored): 0
  Fraction Coiled: 0.0
  Fraction Paralyzed: 0.0
  Fraction Punc: 0.0
C. elegans; 30 μM, 360 min
  C1 (number of animals scored): 0
  C2 (number of animals scored): 0
  Fraction Coiled, AVERAGES: 0.0
  Fraction Paralyzed, AVERAGES: 0.0
  Fraction Punc, AVERAGES: 0.0
  NP (number of animals scored): 18
  P (number of animals scored): 0
  Punc (number of animals scored): 0
  Fraction Coiled: 0.0
  Fraction Paralyzed: 0.0
  Fraction Punc: 0.0
C. elegans; 30 μM
  Next Day: Animals alive (moving fine): alive, recovered; also recorded: alive, recoveed
C. elegans; 60 μM, 30 min
  C1 (number of animals scored): 0
  C2 (number of animals scored): 0
  Fraction Coiled, AVERAGES: 0.0
  Fraction Paralyzed, AVERAGES: 0.0
  Fraction Punc, AVERAGES: 0.667
  NP (number of animals scored): 8 and 6 and 4
  P (number of animals scored): 0
  Punc (number of animals scored): 10 and 12 and 14
  Fraction Coiled: 0.0
  Fraction Paralyzed: 0.0
  Fraction Punc: 0.556 and 0.667 and 0.8
C. elegans; 60 μM, 60 min
  C1 (number of animals scored): 0
  C2 (number of animals scored): 0
  Fraction Coiled, AVERAGES: 0.0
  Fraction Paralyzed, AVERAGES: 0.0
  Fraction Punc, AVERAGES: 0.741
  NP (number of animals scored): 5 and 3 and 6
  P (number of animals scored): 0
  Punc (number of animals scored): 13 and 15 and 12
  Fraction Coiled: 0.0
  Fraction Paralyzed: 0.0
  Fraction Punc: 0.8 and 0.667
C. elegans; 60 μM, 90 min
  C1 (number of animals scored): 0
  C2 (number of animals scored): 0
  Fraction Coiled, AVERAGES: 0.0
  Fraction Paralyzed, AVERAGES: 0.0
  Fraction Punc, AVERAGES: 0.463
  P (number of animals scored): 0
  Fraction Coiled: 0.0
  Fraction Paralyzed: 0.0
C. elegans; 60 μM, 120 min
  C1 (number of animals scored): 0
  C2 (number of animals scored): 0
  Fraction Coiled, AVERAGES: 0.0
  Fraction Paralyzed, AVERAGES: 0.0
  Fraction Punc, AVERAGES: 0.259
  NP (number of animals scored): 10 and 15
  P (number of animals scored): 0
  Fraction Coiled: 0.0
  Fraction Paralyzed: 0.0
C. elegans; 60 μM, 240 min
  C1 (number of animals scored): 0
  C2 (number of animals scored): 0
  Fraction Coiled, AVERAGES: 0.0
  Fraction Paralyzed, AVERAGES: 0.0
  Fraction Punc, AVERAGES: 0.037
  NP (number of animals scored): 18 and 16
  P (number of animals scored): 0
  Fraction Coiled: 0.0
  Fraction Paralyzed: 0.0
  Fraction Punc: 0.0
C. elegans; 60 μM, 360 min
  C1 (number of animals scored): 0
  C2 (number of animals scored): 0
  Fraction Coiled, AVERAGES: 0.0
  Fraction Paralyzed, AVERAGES: 0.0
  Fraction Punc, AVERAGES: 0.0
  NP (number of animals scored): 18
  P (number of animals scored): 0
  Punc (number of animals scored): 0
  Fraction Coiled: 0.0
  Fraction Paralyzed: 0.0
  Fraction Punc: 0.0
C. elegans; 60 μM
  Next Day: Animals alive (moving fine): alive, recovered; also recorded: alive recovered
C. elegans; 60uM
  any phene, mean % fraction of young adults exhibiting any phenotype (coiled, jerky-Unc or paralyzed): 95.8333%
  atypical locomotion (number of animals): 5 and 8 and 9 and 7 and 0 and 4
  coiled (number of animals): 8 and 6 and 10
  no phene (number of animals): 0 and 2 and 3
  paralyzed (number of animals): 7 and 6 and 1 and 4 and 10 and 8
C. elegans; Caenorhabditis elegans, 1 h, Fig. 1, dose-response at 60 min, wild-type young adults, +/- 95% CI, read-out: EC50
  EC50: 24.5 ± 6.1 µM
[1]; 2 µM
  % effect (motility), DIROIM L4: 0%
[1]; 10 µM
  % effect (motility), DIROIM L4: 75%
[1]; 50 µM
  % effect (motility), DIROIM L4: 100%

From paper PMC10066365, “Nemacol is a small molecule inhibitor of C. elegans vesicular acetylcholine transporter with anthelmintic potential” (Nature Communications, 2023)
